Tests used:
αvβ6 = αvβ6 (Homo sapiens (Human), UniProt P06756+P18564); assay: αVβ6–LAP-TGF β1 integrin binding assay (integrin-coupled beads, flow cytometry); conditions: for IC50: ligand LAP TGF-β1; for αvβ8/αvβ6: ratio of αvβ8 IC50 to αvβ6 IC50
Text: (§1) All αV Integrins are known to bind to proteins with a RGD motif. Two RGD ligands were used in this study: Vitronectin (VN) as a ligand for αVβ3 and αVβ5 (Wayner et al., J. Cell Biol., 113 (4), 919-929, 1991), and LAP TGF-β1 (LAP1) as a ligand for αVβ6 and αVβ8 (Rognoni et al., Nat. Med., 20(4): 350-359, 2014). CWHM12 was used as a positive control for αVβ6 and αVβ8 (Henderson et al., Nat. Med. 19(12), 10.1038/nm.3282 2013), and Cilengitide as a positive control for αVβ3 and αVβ5 (Kumar et al., J. Pharmacol. Exp. Ther., 283, 843-853, 1997).
(§2) The integrin coupled Dyna beads were allowed to interact with respective ligands. The integrin-ligand complex was detected with either Primary/Secondary Antibody conjugated with Fluorescein Isothiocyanate (FITC). For αVβ3 and αVβ5, Vitronectin was used as a ligand and a primary antibody conjugated with FITC (Anti-VN-FITC Ab) was used to detect the interaction. For αVβ6 and αVβ8, LAP-TGF (31 was used as ligand and a primary antibody against LAP1 (Anti-LAP1 Ab) and a secondary antibody conjugated with FITC were used to detect the αVβ6/αVβ8-LAP-TGF (31 complex. Fluorescence was measured by Flow Cytometry analysis.
(§3) 5 mg of Dyna beads were weighed in a low protein binding microfuge (Eppendorf) tube (1.5 mL volume). The beads were re-suspended in 1 mL of Sodium Phosphate Buffer and vortexed at high speed for 30 seconds. The tube was then placed in a tube roller and tilt rotated for 10 min. After tilt rotation, the tube was placed on the Magna Spin and the beads were allowed to settle. The supernatant was discarded and the beads were washed three times. The beads were then re-suspended in 100 μL of Sodium Phosphate Buffer and 20 μL of washed beads were distributed into 5 low protein binding Eppendorf tubes (1 mg of beads in each tube). The beads were used for coupling integrins.
(§4) 20 μL of (1 mg) of beads were mixed with 20 μL of integrins (20 μg) and 20 μL of 3 M Ammonium Sulfate solution (final concentration of ammonium sulfate was 1M) to achieve a Bead: Protein ratio of 5 mg:100 μg. The solution was mixed gently and placed in a tube roller and incubated at 37° C. for 16 hours.
(§5) αVβ6/αVβ8 coupled beads were treated with the ligand LAP TGF-β1 (LAP1) at room temperature for 3 hours. The complex (Integrin+Ligand) was then treated with primary Ab (Anti-LAP1 Ab) overnight at 4° C. The whole complex (Integrin+Ligand+Primary Ab) was treated with Secondary Ab conjugated with FITC and incubated for 2 hours. The complex was analyzed by either plate reader or Flow Cytometer.
(§6) 10 μL of αVβ6/αVβ8 coupled beads were taken for the experiment. The concentration of integrins was 10 nM. 10 μL of LAP1 was taken (10 nM for aVβ6 and 20 nM for aVβ8). Reaction between integrin coupled beads and LAP1 was considered as the full reaction, and reaction without LAP1 or a compound of the disclosure was considered as the blank reaction. The samples were incubated in low protein binding tubes at room temperature for 3 hours. The tubes were briefly spun and placed in a Magna spin. The supernatant was removed. The beads were washed with assay buffer twice to remove excess LAP1 and then re-suspended in […] assay buffer containing 1:200 anti-LAP1 Ab (primary Ab). The tubes were placed in a tube roller and incubated at 4° C. overnight. After a brief spin, the tubes were then placed in a Magna spin and the supernatant was removed. The beads were washed with assay buffer twice to remove excess primary Ab and then re-suspended in 150 μL of assay buffer containing 1:500 secondary Ab conjugated with FITC. The tubes were incubated at room temperature for 2 hours in a tube roller. After a brief spin, the tubes were placed in a Magna spin and the supernatant was removed. The beads were washed with assay buffer twice followed by PBS. The beads were then re-suspended in 300 μL of PBS and analyzed by a Flow Cytometer (BD FACSCalibur, Software—BDcell Quest Pro Version 6). […]

αvβ8 = αvβ8 (Homo sapiens (Human), UniProt P06756+P26012); assay: αVβ8–LAP-TGF β1 integrin binding assay (integrin-coupled beads, flow cytometry); conditions: ligand LAP TGF-β1
Chain of αvβ8 (P06756 31-992): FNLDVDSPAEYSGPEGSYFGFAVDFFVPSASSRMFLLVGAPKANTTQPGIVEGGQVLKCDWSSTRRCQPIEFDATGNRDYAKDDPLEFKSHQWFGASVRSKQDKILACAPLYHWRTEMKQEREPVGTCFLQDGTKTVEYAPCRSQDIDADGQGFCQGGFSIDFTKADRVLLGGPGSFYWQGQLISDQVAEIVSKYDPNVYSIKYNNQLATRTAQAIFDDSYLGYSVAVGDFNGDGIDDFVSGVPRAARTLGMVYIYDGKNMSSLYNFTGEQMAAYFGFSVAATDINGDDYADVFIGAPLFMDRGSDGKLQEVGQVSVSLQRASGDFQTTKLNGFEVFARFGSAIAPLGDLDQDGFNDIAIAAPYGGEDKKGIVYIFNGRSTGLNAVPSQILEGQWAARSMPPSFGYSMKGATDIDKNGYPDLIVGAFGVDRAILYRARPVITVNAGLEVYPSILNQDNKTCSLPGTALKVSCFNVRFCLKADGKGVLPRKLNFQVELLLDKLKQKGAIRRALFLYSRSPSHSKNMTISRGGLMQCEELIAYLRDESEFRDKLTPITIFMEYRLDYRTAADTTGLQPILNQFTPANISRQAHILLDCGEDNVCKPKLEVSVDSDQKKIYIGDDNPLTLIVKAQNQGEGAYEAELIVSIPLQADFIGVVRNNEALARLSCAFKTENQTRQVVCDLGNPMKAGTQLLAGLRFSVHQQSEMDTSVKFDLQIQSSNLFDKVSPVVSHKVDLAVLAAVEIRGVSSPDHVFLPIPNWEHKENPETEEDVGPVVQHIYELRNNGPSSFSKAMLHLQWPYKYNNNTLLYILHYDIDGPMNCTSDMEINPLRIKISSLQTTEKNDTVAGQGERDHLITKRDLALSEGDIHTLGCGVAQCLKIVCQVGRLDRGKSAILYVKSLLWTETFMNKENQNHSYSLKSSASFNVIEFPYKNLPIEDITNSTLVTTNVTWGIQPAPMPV
Chain of αvβ8 (P26012 43-684): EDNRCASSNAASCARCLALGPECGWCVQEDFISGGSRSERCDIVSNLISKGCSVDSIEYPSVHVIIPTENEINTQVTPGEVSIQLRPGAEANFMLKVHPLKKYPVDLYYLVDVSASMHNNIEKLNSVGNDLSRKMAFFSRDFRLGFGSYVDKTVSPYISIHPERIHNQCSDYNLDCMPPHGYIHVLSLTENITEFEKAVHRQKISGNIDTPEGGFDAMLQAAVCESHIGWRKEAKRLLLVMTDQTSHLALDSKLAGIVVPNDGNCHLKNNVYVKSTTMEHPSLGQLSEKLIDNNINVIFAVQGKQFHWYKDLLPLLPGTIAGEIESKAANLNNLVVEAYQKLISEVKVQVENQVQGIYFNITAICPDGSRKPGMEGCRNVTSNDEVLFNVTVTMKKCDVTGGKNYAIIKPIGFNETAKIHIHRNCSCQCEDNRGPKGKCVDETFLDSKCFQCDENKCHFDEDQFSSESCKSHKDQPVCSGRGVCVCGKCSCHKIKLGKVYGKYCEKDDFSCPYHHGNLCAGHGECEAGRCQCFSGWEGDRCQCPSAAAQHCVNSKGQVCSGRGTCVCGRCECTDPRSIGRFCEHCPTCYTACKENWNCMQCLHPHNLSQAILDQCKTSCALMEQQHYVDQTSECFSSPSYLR
Text: as §1, §2, §3, §4, §5, §6

αvβ3 = αvβ3 (Homo sapiens (Human), UniProt P05106+P06756); assay: αVβ3–vitronectin integrin binding assay (integrin-coupled beads, flow cytometry); conditions: ligand vitronectin
Chain of αvβ3 (P06756 31-992): as the sequence (P06756 31-992) above
Chain of αvβ3 (P05106 27-718): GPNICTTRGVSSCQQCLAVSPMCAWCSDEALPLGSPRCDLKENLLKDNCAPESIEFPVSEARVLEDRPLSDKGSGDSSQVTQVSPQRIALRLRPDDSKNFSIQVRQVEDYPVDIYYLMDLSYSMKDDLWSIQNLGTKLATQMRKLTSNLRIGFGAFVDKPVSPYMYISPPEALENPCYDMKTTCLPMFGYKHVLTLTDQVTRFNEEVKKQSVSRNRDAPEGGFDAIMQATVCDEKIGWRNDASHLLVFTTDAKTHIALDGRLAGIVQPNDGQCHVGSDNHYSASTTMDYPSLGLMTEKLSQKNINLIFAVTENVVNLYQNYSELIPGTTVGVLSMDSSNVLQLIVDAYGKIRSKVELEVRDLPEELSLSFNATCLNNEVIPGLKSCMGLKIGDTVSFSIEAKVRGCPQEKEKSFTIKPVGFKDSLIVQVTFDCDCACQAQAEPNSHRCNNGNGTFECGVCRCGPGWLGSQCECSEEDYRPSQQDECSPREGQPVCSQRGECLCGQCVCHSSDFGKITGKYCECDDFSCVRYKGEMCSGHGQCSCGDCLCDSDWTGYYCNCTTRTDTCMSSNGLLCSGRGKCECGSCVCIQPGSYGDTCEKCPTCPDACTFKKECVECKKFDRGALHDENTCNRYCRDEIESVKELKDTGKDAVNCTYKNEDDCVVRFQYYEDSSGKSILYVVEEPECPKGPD
Text: as §1, §2, §3, §4
αVβ3/αVβ5 coupled beads were treated with the ligand at room temperature for 3 hours. The complex (Integrin+Ligand) was then treated with Anti-Vitronectin Ab conjugated with FITC overnight at 4° C. The complex was analyzed by either plate reader or Flow Cytometer.
10 μL of αVβ3/αVβ5 coupled beads were taken for the experiment. The concentration of integrins was 10 nM. 10 μL of vitronectin was taken. The concentration was 10 nM. Reaction between integrin coupled beads and vitronectin was considered as the full reaction, and reaction without vitronectin or a compound of the disclosure was considered as the blank reaction. The samples were incubated in low protein binding tubes at room temperature for 3 hours. The tubes were briefly spun and placed in a Magna spin. The supernatant was then removed. The beads were washed with assay buffer twice to remove excess vitronectin and then re-suspended in 150 μL of assay buffer containing 1:500 Anti-vitronectin Ab conjugated with FITC. The tubes were placed in a tube roller and incubated at 4° C. overnight. […] The beads were then re-suspended in […] PBS and analyzed by a Flow Cytometer (BD FACSCalibur, Software—BD Cell Quest Pro Version 6).
The samples were acquired using a BD FACSCalibur system and analyzed with BD Cell quest pro Version 6. […] Percentage of binding was calculated with respect to full reaction. […]

[1] = tested on: bleomycin induced lung stiffness; assay: Bleomycin induced mouse pulmonary fibrosis model (lung stiffness, pressure-volume curves); format: in vivo, male C57BL/6 mice; conditions: for reversal of bleomycin induced lung stiffness, compared to the vehicle control group: all doses tested (10, 30, 100 mg/kg PO, day 0-21); for reversal of lung stiffness compared to positive control pirfenidone 100 mg/kg BID: mid- and high-dose groups (30 and 100 mg/kg PO)
Method: Experimental animals are randomly and prospectively assigned to groups. On day 0 and prior to bleomycin induction, animals are administered the first dose of vehicle or a compound of the present disclosure. Following dosing, all animals are anesthetized. A small diameter cannula is inserted into the trachea and saline or bleomycin is slowly infused into the lungs. Group 1 serves as an untreated control group and receives saline only (no bleomycin) on day 0. The other groups receive bleomycin on day 0. Treatments with vehicle (e.g., methylcellulose), positive control (e.g., Pirfenidone), or a compound of the present disclosure are administered once or twice daily via oral gavage (PO). All animals are weighed and evaluated daily for respiratory distress.
Prior to sacrifice, animals are anesthetized and once the animal is determined to be non-responsive a shallow incision is made. The trachea is isolated and a transverse cut is made between tracheal rings approximately half-way through the trachea. A tracheotomy is performed by the insertion of a cannula through the incision secured with surgical suture to the trachea. Following cannulation, the adapter end of the cannula is attached to the mechanical ventilator. The animal is ventilated and following an acclimation period, lung volume is standardized and each animal undergoes a measure of total respiratory impedance.
Ninety-five male C57BL/6 mice were randomly and prospectively assigned to one group of fifteen animals and eight groups of ten animals each. On day 0 and at least one hour prior to bleomycin induction, animals were administered the first dose of vehicle or test-article (i.e., a compound of the present disclosure). At least one hour following dosing, all mice were anesthetized with isoflurane and placed on their backs lying on a table at approximately 60°. A small diameter cannula was inserted into the trachea, and saline or bleomycin was slowly infused into the lungs in a volume of 40 μL.
Group 1 served as an untreated control group and received saline only (no bleomycin) on day 0. Groups 2-9 received 2.25 U/kg of bleomycin on day 0. The animals were then released into a recovery cage and allowed to wake up. From day 0 through day 21, treatments were administered once or twice daily via oral gavage (PO). Vehicle treated animals (Group 2) received 0.4% methylcellulose. Remaining animals received either Pirfenidone at 100 mg/kg (Group 3), Compound A15s at 100 mg/kg (Group 4), 30 mg/kg (Group 5) or 10 mg/kg (Group 6), or Compound A21 at 100 mg/kg (Group 7), 30 mg/kg (Group 8) or 10 mg/kg (Group 9).
All animals were weighed and evaluated daily for respiratory distress (defined as an increase in respiratory rate and/or obvious respiratory effort). Animals with severe respiratory distress, or animals that lost greater than 30% of their total starting body weight, were euthanized within 2 hours of observation.
On Day 21, prior to sacrifice, mice were anesthetized with IP injection of ketamine/xylazine (100 mg/kg, 10 mg/kg). Once the animal was determined to be non-responsive a shallow 2 cm vertical incision was made starting from 1 cm below the chin. The trachea was isolated and a transverse cut was made between tracheal rings approximately half-way through the trachea. A tracheotomy was performed by the insertion of an 18 gauge polyethylene cannula through the incision secured with surgical suture to the trachea. Following cannulation, the adapter end of the cannula was attached to the flexiVent mechanical ventilator. The animal was ventilated at 10 ml/kg tidal volume (VT), 150 breaths per minute and 3 cm H2O positive end expiratory pressure (PEEP). Following a 2-minute acclimation period, lung volume was standardized with 1, 6-second deep inflation to a pressure of 30 cm H2O followed by 2 pressure-volume measurements up to 40 ml/kg. […]

Chain of αvβ6 (P06756 31-992): as the sequence (P06756 31-992) above
Chain of αvβ6 (P18564 22-707): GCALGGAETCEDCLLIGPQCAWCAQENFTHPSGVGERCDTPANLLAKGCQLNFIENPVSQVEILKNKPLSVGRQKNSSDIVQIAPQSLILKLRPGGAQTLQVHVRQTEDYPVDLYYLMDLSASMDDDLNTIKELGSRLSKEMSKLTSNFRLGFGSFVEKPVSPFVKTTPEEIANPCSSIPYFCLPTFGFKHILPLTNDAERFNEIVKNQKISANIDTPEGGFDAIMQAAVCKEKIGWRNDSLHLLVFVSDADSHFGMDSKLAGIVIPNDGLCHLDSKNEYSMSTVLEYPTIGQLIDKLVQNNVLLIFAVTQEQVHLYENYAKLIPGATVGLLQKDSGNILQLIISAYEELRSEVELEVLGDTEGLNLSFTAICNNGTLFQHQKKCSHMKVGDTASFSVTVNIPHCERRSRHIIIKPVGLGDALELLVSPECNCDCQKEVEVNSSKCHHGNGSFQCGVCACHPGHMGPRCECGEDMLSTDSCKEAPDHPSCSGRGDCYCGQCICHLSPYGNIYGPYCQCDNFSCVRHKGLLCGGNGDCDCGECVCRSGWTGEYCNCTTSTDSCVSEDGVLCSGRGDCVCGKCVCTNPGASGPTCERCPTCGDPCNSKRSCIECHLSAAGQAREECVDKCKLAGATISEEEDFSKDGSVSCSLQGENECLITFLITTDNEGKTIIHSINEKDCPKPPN

Structure (SMILES) | IC50 (αvβ6) [nM] | αvβ8/αvβ6 (αvβ6) | IC50 (αvβ8) [nM] | IC50 (αvβ3) [nM] | reversal of bleomycin induced lung stiffness, mid- and high-dose groups ([1]; 30 and 100 mg/kg PO, day 0-21) | reversal of bleomycin induced lung stiffness, compared to the vehicle control group [1] | reversal of lung stiffness compared to positive control pirfenidone 100 mg/kg BID [1] | lung stiffness compared to saline treated animal group (no bleomycin) ([1]; mid-dose group (30 mg/kg PO))
O=C(O)CC(CCCCCCc1ccc2c(n1)NCCC2)c1cccc(C(F)(F)F)c1 (single isomer, unassigned) [Compound A21-2] | 4.6 | 10.93 | 50.3 | – | – | – | – | –
O=C(O)C[C@@H](c1ccc(OC(F)F)nc1)N1CCN(CCCc2ccc3c(n2)NCCC3)C1=O [Compound A1, (S)-3-(6-(difluoromethoxy)pyridin-3-yl)-3-(2-oxo-3-(3-(5,6,7,8-tetrahydro-1,8-naphthyridin-2-yl)propyl)imidazolidin-1-yl)propanoic acid] | 8.3 | 1.59 | 13.2 | – | – | – | – | –
O=C(O)CC(CCCCCCc1ccc2c(n1)NCCC2)c1cnc(C(F)(F)F)nc1 (centres unmarked) [Compound A2, 9-(5,6,7,8-tetrahydro-1,8-naphthyridin-2-yl)-3-(2-(trifluoromethyl)pyrimidin-5-yl)nonanoic acid] | 11.6 | 6.71 | 78.1 | 9 | – | – | – | –
O=C(O)CC(CCCCCCc1ccc2c(n1)NCCC2)c1cnc2cc(F)c(F)cc2c1 (centres unmarked) [Compound A6, 3-(6,7-difluoroquinolin-3-yl)-9-(5,6,7,8-tetrahydro-1,8-naphthyridin-2-yl)nonanoic acid] | 8.25 | 2.91 | 24 | – | – | – | – | –
O=C(O)CC(CCCCCCc1ccc2c(n1)NCCC2)c1cnc2cc(C(F)(F)F)ccc2c1 (centres unmarked) [Compound A7, 9-(5,6,7,8-tetrahydro-1,8-naphthyridin-2-yl)-3-(7-(trifluoromethyl)quinolin-3-yl)nonanoic acid] | 11.6 | 6.93 | 80.6 | – | – | – | – | –
O=C(O)C[C@@H](c1cccc(C(F)(F)F)c1)N1CCN(CCCc2ccc3c(n2)NCCC3)C1=O [Compound A15s, (S)-3-(2-oxo-3-(3-(5,6,7,8-tetrahydro-1,8-naphthyridin-2-yl)propyl)imidazolidin-1-yl)-3-(3-(trifluoromethyl)phenyl)propanoic acid] | 9.28 | 0.64 | 5.92 | – | significant reversal of bleomycin induced lung stiffness | reversed bleomycin induced lung stiffness at all doses tested | superior to the positive control pirfenidone | indistinguishable from the saline treated animal group
O=C(O)CC(CCCCCCc1ccc2c(n1)NCCC2)c1cccc(C(F)(F)F)c1 (centres unmarked) [Compound A21] | 7.64 | 11.54 | 88.2 | – | – | reversed bleomycin induced lung stiffness at all doses tested | similar, if not better, reversal of bleomycin induced lung stiffness | –
O=C(O)CC(CCCCCCc1ccc2c(n1)NCCC2)c1cc(Cl)cc(C(F)(F)F)c1 (centres unmarked) [Compound A24, 3-(3-chloro-5-(trifluoromethyl)phenyl)-9-(5,6,7,8-tetrahydro-1,8-naphthyridin-2-yl)nonanoic acid] | 17.5 | 2.02 | 35.4 | – | – | – | – | –
O=C(O)CC(CCCCCCc1ccc2c(n1)NCCC2)c1cc(C(F)(F)F)ccc1F (centres unmarked) [Compound A28] | 16.9 | 2.04 | 34.4 | – | – | – | – | –
COc1ccc([C@H](CC(=O)O)N2CCN(CCCc3ccc4c(n3)NCCC4)C2=O)cn1 [Compound A30s] | – | 1.83 | – | – | – | – | – | –
